Laboratory results taken from ChEMBL document CHEMBL1201862, “PubChem BioAssay data set” (2004).
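96-well plates; 48 h exposure; 5 concentrations. Endpoints by linear interpolation between flanking doses. Not reached: highest tested concentration assigned. The concentration for 50% growth inhibition is given as GI50.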 Activity calls are given as the source filed them. No stated cut-off is given here; in the data, active = GI50 up to about 1.1 µM and inactive = higher.

Columns and labels:
Assay in all cases: inhibition of tumour cell growth, NCI panel, 48 h
[1] = system: 786-0
[2] = system: A498
[3] = system: A549
[4] = system: ACHN
[5] = system: CAKI-1
[6] = system: CCRF-CEM
[7] = system: COLO 205
[8] = system: DLD-1
[9] = system: DMS-114
[10] = system: DMS-273
[11] = system: EKVX
[12] = system: HCC 2998
[13] = system: HCT-116
[14] = system: HCT-15
[15] = system: HL-60
[16] = system: HOP-18
[17] = system: HOP-62
[18] = system: HT-29
[19] = system: IGROV-1
[20] = system: K562
[21] = system: KM-20L2
[22] = system: KM12
[23] = system: LOX IMVI
[24] = system: LXFL 529
[25] = system: M14
[26] = system: M19-MEL
[27] = system: MOLT-4
[28] = system: Malme-3M
[29] = system: NCI-H226
[30] = system: NCI-H23
[31] = system: NCI-H460
[32] = system: NCI-H522
[33] = system: OVCAR-3
[34] = system: OVCAR-4
[35] = system: OVCAR-5
[36] = system: OVCAR-8
[37] = system: RPMI-8226
[38] = system: SF-268
[39] = system: SF-295
[40] = system: SK-MEL-28
[41] = system: SK-MEL-2
[42] = system: SK-MEL-5
[43] = system: SK-OV-3
[44] = system: SN12C
[45] = system: SNB-19
[46] = system: SNB-75
[47] = system: SNB-78
[48] = system: SW-620
[49] = system: TK-10
[50] = system: U-251
[51] = system: UACC-257
[52] = system: UACC-62
[53] = system: UO-31
[54] = system: HOP-92
[55] = system: RXF 393
[56] = system: SR
[57] = system: SF-539

NC(=O)CCC(NCc1c2ccccc2[n+]([O-])c2ccccc12)C(=O)O (stereo not given)
GI50 [1]: 70.8 µM (inactive)
GI50 [2]: > 100 µM (inactive)
GI50 [3]: > 100 µM (inactive)
GI50 [4]: 78 µM (inactive)
GI50 [5]: 82.8 µM (inactive)
GI50 [6]: 35.6 µM (inactive)
GI50 [7]: > 100 µM (inactive)
GI50 [8]: 46.9 µM (inactive)
GI50 [9]: 41.9 µM (inactive)
GI50 [10]: 56.8 µM (inactive)
GI50 [11]: > 100 µM (inactive)
GI50 [12]: > 100 µM (inactive)
GI50 [13]: 30.8 µM (inactive)
GI50 [14]: 34.5 µM
GI50 [15]: 29.3 µM (inactive)
GI50 [16]: 33.5 µM (inactive)
GI50 [17]: > 100 µM (inactive)
GI50 [18]: > 100 µM (inactive)
GI50 [19]: > 100 µM (inactive)
GI50 [20]: 36.3 µM (inactive)
GI50 [21]: 52.6 µM (inactive)
GI50 [22]: 65.9 µM (inactive)
GI50 [23]: 39.1 µM (inactive)
GI50 [24]: 45.1 µM (inactive)
GI50 [25]: > 100 µM (inactive)
GI50 [26]: 95.5 µM (inactive)
GI50 [27]: 30 µM (inactive)
GI50 [28]: 81.8 µM (inactive)
GI50 [29]: 60.1 µM (inactive)
GI50 [30]: 63 µM (inactive)
GI50 [31]: > 100 µM (inactive)
GI50 [32]: 70 µM (inactive)
GI50 [33]: > 100 µM (inactive)
GI50 [34]: 40.1 µM (inactive)
GI50 [35]: > 100 µM (inactive)
GI50 [36]: > 100 µM (inactive)
GI50 [37]: 36.1 µM (inactive)
GI50 [38]: 59.2 µM (inactive)
GI50 [39]: > 100 µM (inactive)
GI50 [40]: > 100 µM (inactive)
GI50 [41]: 95.9 µM (inactive)
GI50 [42]: 68.7 µM (inactive)
GI50 [43]: > 100 µM (inactive)
GI50 [44]: > 100 µM (inactive)
GI50 [45]: > 100 µM (inactive)
GI50 [46]: 49.7 µM (inactive)
GI50 [47]: > 100 µM (inactive)
GI50 [48]: 52.5 µM (inactive)
GI50 [49]: > 100 µM (inactive)
GI50 [50]: > 100 µM (inactive)
GI50 [51]: > 100 µM (inactive)
GI50 [52]: 90.8 µM (inactive)
GI50 [53]: 59 µM (inactive)

CCOC(=O)CNC(=O)C(CSC(=O)N(C)O)NC(=O)CCC(N)C(=O)O (stereo not given)
GI50 [4]: 653 µM (inactive)
GI50 [6]: 1.02 µM (active)
GI50 [7]: 0.735 µM (active)
GI50 [8]: 0.656 µM (active)
GI50 [9]: 0.968 µM (active)
GI50 [10]: 0.75 µM (active)
GI50 [13]: 1.75 µM (inactive)
GI50 [14]: > 1000 µM
GI50 [15]: 659 µM (inactive)
GI50 [16]: 462 µM (inactive)
GI50 [54]: 348 µM (inactive)
GI50 [18]: 0.891 µM (active)
GI50 [23]: 0.658 µM (active)
GI50 [35]: 436 µM (inactive)
GI50 [37]: 908 µM (inactive)
GI50 [55]: 498 µM (inactive)
GI50 [40]: 927 µM (inactive)
GI50 [41]: 378 µM (inactive)
GI50 [43]: 684 µM (inactive)
GI50 [56]: 0.644 µM (active)
GI50 [48]: > 1000 µM (inactive)
GI50 [49]: 655 µM (inactive)

Cc1c2cc[n+](C)cc2c(C)c2c1[nH]c1ccc(OC(C)C)cc12
GI50 [2]: 12 µM (inactive)
GI50 [3]: 3.44 µM (inactive)
GI50 [4]: 16.1 µM (inactive)
GI50 [7]: 1.39 µM (inactive)
GI50 [10]: 2.69 µM (inactive)
GI50 [11]: 5.06 µM (inactive)
GI50 [13]: 3.77 µM (inactive)
GI50 [14]: > 58.2 µM
GI50 [15]: 2.43 µM (inactive)
GI50 [16]: 3.75 µM (inactive)
GI50 [54]: 3.01 µM (inactive)
GI50 [18]: 4.25 µM (inactive)
GI50 [19]: 2.55 µM (inactive)
GI50 [21]: 4.72 µM (inactive)
GI50 [22]: 2.75 µM (inactive)
GI50 [23]: 6.95 µM (inactive)
GI50 [24]: 0.875 µM (active)
GI50 [25]: 10.4 µM (inactive)
GI50 [26]: 2.09 µM (inactive)
GI50 [27]: 5.18 µM (inactive)
GI50 [28]: 1.97 µM (inactive)
GI50 [30]: 2.51 µM (inactive)
GI50 [31]: 2.6 µM (inactive)
GI50 [32]: 1.98 µM (inactive)
GI50 [33]: 3.1 µM (inactive)
GI50 [34]: 3.85 µM (inactive)
GI50 [35]: 12.9 µM (inactive)
GI50 [37]: 7.74 µM (inactive)
GI50 [38]: 0.418 µM (active)
GI50 [57]: 1.01 µM (active)
GI50 [40]: 4.42 µM (inactive)
GI50 [41]: 2.56 µM (inactive)
GI50 [42]: 1.48 µM (inactive)
GI50 [44]: 0.542 µM (active)
GI50 [46]: 0.384 µM (active)
GI50 [48]: 3.12 µM (inactive)
GI50 [49]: 39.3 µM (inactive)
GI50 [51]: 2.82 µM (inactive)
GI50 [52]: 2.71 µM (inactive)
GI50 [53]: 27.3 µM (inactive)
